Assay results from US20030104090A1, “Supplements containing annatto extracts and carotenoids and methods for using the same” (priority 2000, published 2003).
Read-outs that look alike come from different tables or passages of the source.

What was measured:
[1] = Serum levels of bixin and norbixin in human volunteers on bixin supplementation (Example 1); format: in vivo; conditions: human test group, 20 milligrams bixin daily as two 10 mg capsules, during supplementation
From the text: (§1) Two groups of human volunteers (3 individuals in the test group and 5 in the control group) were exposed to high oxidative stress conditions by breathing contaminated air of a high ozone level and a high concentration of smoke over a period of four to five days for one half hour per day. Both groups were given the same diets. Namely, they consumed their normal daily diets but avoided foods rich in carotenoids, particularly foods containing annatto (as a colorant), from two weeks before the exposure until two weeks after the exposure.
During the period of bixin supplementation, the serum level of bixin and norbixin was zero in the control group, while the serum levels of bixin and norbixin in the individuals of the test group reached levels of 12 and 60 micrograms/liter, respectively.

[2] = rats, cited from earlier work
[3] = mice, 66 mg norbixin per kilogram body weight; cited from earlier work
[4] = mice and rats on high dietary doses; cited from earlier work
[5] = tested on: DNA; conditions: cells exposed to radiation, metal ions and peroxides, cisplatin; cited from earlier work
[6] = tested on: thiobarbituric acid-reactive substances; experiment: Oxidative stress load in the blood, modified TBAR test and free radical content (Example 1); format: in vivo, human; conditions: humans exposed to high ozone and smoke, 20 mg bixin daily
From the text: as §1

[7] = tested on: WAZ-2T(-SA) mammary tumor cell line; experiment: Dietary bixin in mammary tumor development (Example 2); format: in vivo, BALB/c mice; conditions: for final tumor weight: 50 days after inoculation, control 1.1 grams; for tumor latency (days post inoculation when tumors first palpable): control 30 days
Method: (§2) Female BALB/c mice and the WAZ-2T(-SA) mammary tumor cell line were used to determine the efficacy of dietary bixin in inhibiting mammary tumor development. Six mice per treatment were fed a semi synthetic AlN-93M diet containing 0, 0.006 or 0.06% bixin. After 14 days, all mice were inoculated with 2500 tumor cells (a cell load which typically produces a 65% tumor incidence in untreated controls). Tumor growth was measured daily for 50 days, at which time blood, liver, spleen, and tumors were removed and evaluated. […] Final tumor weight was 0.3 grams at 0.06% dietary bixin, 0.7 grams at 0.006% and 1.1 grams for the control without dietary bixin. Tumor latency (number of days post inoculation when mammary tumors were first palpable) was 45 days at 0.06% dietary bixin level, 38 days at 0.006%, and 30 days for the control. Results were determined to be statistically significant at the P<0.05 level. […] It may thus be concluded that the dietary bixin protected the mice from mammary tumor development by triggering genes of immune related systems rather than by an antioxidant action at the cellular level.

[8] = tested on: PIM-1, p-53, BAX, and BCL-2; experiment: mRNA expression in isolated splenocytes cultured with concanavalin-A (Example 2); format: cell-based, BALB/c mice; conditions: splenocytes of mice fed dietary bixin
Method: as §2

[9] = Acceptable daily intake (JECFA, 1982); set-up: species or system human; conditions: worked out from 0.065 mg/day/kg
From the text: Bixin and its hydrolyzed form, norbixin, are used as coloring agents for human consumption, mainly in cheese (see Collins, “The role of annatto in food colouring,” Food Ingredients and Processing International, 23-27 (February 1992)). For some coloring applications, methylbixin has been commercially prepared by esterification of the […] of the bixin molecule (Zechmelster, et al., “A stereochernical study of methylbixin,” J. Am. Chem. Soc., 66:322330 (1944); Jondiko, et al., “Terpenoids and an apocarotenoid from seeds of B. orellana,” Phytochemistry, 28:3159-3162 (1989)). As a natural color additive to foods, particularly cheeses, bixin is typically added at concentrations of about 1 to 25 mg bixin per kg of food, although higher quantities may be used for some cheeses. Estimates of average daily intake of bixin compounds (usually bixin and norbixin) are of the order of 0.3 to 3 mg per day per person, although some studies report higher values, through the consumption of products such as cheeses, cake decoration, breakfast cereals, ice cream, snacks, margarine, and other foods in which bixin extract is added during food manufacture to provide color. The maximum ADI (acceptable daily intake) established by the Joint FAO/WHO Committee on Food Additives (JECFA, 1982) is 0.065 mg/day/kg body weight, expressed as bixin. […]

[10] = JECFA 1982, expressed as bixin; cited from earlier work
[11] = after human ingestion; cited from earlier work
[12] = tested on: C3H- 1 O-T 1-2 cells; conditions: same level as lutein and canthaxanthin, surpassed only by alpha-tocopherol; cited from earlier work
[13] = tested on: formation of cancer cells; conditions: carcinogenesis with methylcholantrene; cited from earlier work
[14] = rats, oral administration, gamma-radiation; cited from earlier work
[15] = tested on: Connexin-43; conditions: cited from earlier work
[16] = tested on: lipoxidase; conditions: cited from earlier work; for antioxidant activity and lipoxidase inhibition: in vitro, isolated cell or enzyme systems
[17] = tested on: xenobiotic enzymes; conditions: rat, dietary supplementation; cited from earlier work
[18] = tested on: tumor cells; conditions: e.g. human leukemia U937; cited from earlier work
[19] = tested on: caspase-3; conditions: HL-60 cells; cited from earlier work
[20] = tested on: PPARgamma and PPARalpha; conditions: 3T3-L1 adipocytes and HepG2 hepatocytes, in vitro; cited from earlier work
[21] = tested on: esterification of retinol; conditions: cited from earlier work
[22] = tested on: NIH3T3 cells; conditions: in combination with lovastatin, without the cytotoxicity of lovastatin alone; cited from earlier work
[23] = molecular target: aldose reductase (Homo sapiens, UniProt P15121); conditions: found in annatto leaf extract; cited from earlier work
[24] = 100 milligrams per day for 35 days; cited from earlier work
[25] = tested on: hippocampal neuronal cells; conditions: by suppressing activation of c-Src kinase; cited from earlier work
[26] = dietary, pregnant rats; cited from earlier work
[27] = cited from earlier work

**Q.** Which “serum level of norbixin” value [1] does the source give for `CC(/C=C/C=C(C)/C=C/C(=O)O)=C\C=C\C=C(C)\C=C\C=C(C)\C=C\C(=O)O` (stereo in doubt) [norbixin] here?
**A.** The value was 60 micrograms/liter.

**Q.** What about the hyperglycemia induced ([2]; 8.5 mg dietary norbixin/kg body weight) of the same compound?
**A.** Its hyperglycemia induced is 27%.

**Q.** And the hyperglycemia induced ([2]; 74 mg/kg)?
**A.** Its hyperglycemia induced is 53%.

**Q.** What about the hypoglycemia induced [3] of the same compound?
**A.** The hypoglycemia induced was “up to 22%”.

**Q.** And the “DNA breakage in liver and kidney” value [4]?
**A.** Its value is “no detectable DNA breakage”.

**Q.** And the “DNA protection in vitro” value [5]?
**A.** The value was “protects DNA”.

**Q.** Which “serum level of bixin” value [1] does the source give for `COC(=O)/C=C/C(C)=C\C=C\C(C)=C\C=C\C=C(C)\C=C\C=C(C)\C=C\C(=O)O` [bixin] here?
**A.** The value was 12 micrograms/liter.

**Q.** And the “oxidative stress level of the blood (modified TBAR test)” value ([6]; control group high)?
**A.** Its value is “remained normal”.

**Q.** What about the “free radical content of the blood” value ([6]; same relation as TBAR (control high, test normal)) of the same compound?
**A.** Its value is “same relation was found”.

**Q.** And the final tumor weight ([7]; 0.006% dietary bixin)?
**A.** Its final tumor weight is 0.7 grams.

**Q.** And the “tumor latency (days post inoculation when tumors first palpable)” value ([7]; 0.006% dietary bixin)?
**A.** The value was 38 days.

**Q.** What about the final tumor weight ([7]; 0.06% dietary bixin) of the same compound?
**A.** The final tumor weight was 0.3 grams.

**Q.** And the “mammary tumor incidence and tumor growth rate” value ([7]; 0.06% dietary bixin, versus 0.006% and control)?
**A.** The value was “lowest”.

**Q.** And the “tumor latency (days post inoculation when tumors first palpable)” value ([7]; 0.06% dietary bixin)?
**A.** Its value is 45 days.

**Q.** What about the “mRNA expression levels of PIM-1, p-53, BAX, and BCL-2” value [8] of the same compound?
**A.** Its value is “dose dependent effects”.

**Q.** What about the “maximum ADI for average human weight of 60 kg” value [9] of the same compound?
**A.** Its value is 3.9 mg per day.

**Q.** What about the “maximum ADI (acceptable daily intake)” value [10] of the same compound?
**A.** The value was 0.065 mg/day/kg body weight.

**Q.** What about the “absorption into the blood stream” value [11] of the same compound?
**A.** Its value is “readily absorbed”.

**Q.** What about the “inhibition of lipid peroxidation” value [12] of the same compound?
**A.** The value was “potent inhibitor”.

**Q.** And the “prevention of formation of cancer cells” value [13]?
**A.** The value was “did not prevent”.

**Q.** And the “level of lipid peroxides in serum and liver” value [14]?
**A.** The value was “significantly reduced”.

**Q.** And the Connexin-43 gene expression [15]?
**A.** Its Connexin-43 gene expression is “does not up-regulate”.

**Q.** And the “lipoxydase inhibition, modulation of lipid hydroperoxide formation” value ([16]; Canfield et al.)?
**A.** The value was “lipoxydase inhibitor”.

**Q.** And the “antioxidant activity and lipoxidase inhibition” value [16]?
**A.** The value was “strong antioxidant activity and lipoxidase inhibition”.

**Q.** What about the “effect on xenobiotic enzymes of lung and kidney” value [17] of the same compound?
**A.** Its value is “induction effect”.

**Q.** What about the “DNA protection in vitro” value [5] of the same compound?
**A.** Its value is “protects DNA”.

**Q.** Which results are given for `CC(C)=CCC/C(C)=C/CC/C(C)=C/CC/C(C)=C/CO` [geranylgeraniol]?
**A.** induction of apoptosis [18]: very potent inducer of apoptosis; activation of caspase-3 [19]: selective activation; lipid metabolic target genes [20]: upregulates; esterification of retinol into inactive retinyl esters [21]: inhibits esterification; aberrant (oncogenic) signaling between cells [22]: selectively inhibits

**Q.** For `COC(=O)/C=C/C(C)=C/C=C/C(C)=C/C=C/C=C(C)/C=C/C=C(C)/C=C/C(=O)OC` [methylbixin], which “antioxidant activity and lipoxidase inhibition” value [16] is on record?
**A.** Its value is “strong antioxidant activity and lipoxidase inhibition”.

**Q.** For isoscutellarein, which aldose reductase inhibition [23] is on record?
**A.** Its aldose reductase inhibition is “aldose reductase inhibitor”.

**Q.** With tocotrienol as the compound, how does the “reduction of total cholesterol levels” value [24] read?
**A.** The value was 20%.

**Q.** And the “protection from glutamate-induced death” value [25]?
**A.** The value was “protects”.

**Q.** What about the “bioavailability to maternal and fetal brains” value [26] of the same compound?
**A.** Its value is “bioavailable”.

**Q.** For vitamin E, which “urinary albumin excretion rate” value ([27]; humans with type 2 diabetes) is on record?
**A.** Its value is “significantly reduced”.

**Q.** What about the “plasma levels of C-reactive molecules” value ([27]; patients with diabetes) of the same compound?
**A.** Its value is “decreased”.
